According to ChEMBL document CHEMBL4673190, “Recent developments in anticancer kinase inhibitors based on the pyrazolo[3,4-d]pyrimidine scaffold” (RSC Med Chem, 2020):
One block for each compound: values may come before it.

Legend:
[1] = target: T1, Tyrosine-protein kinase JAK3 (Homo sapiens, UniProt P52333); experiment: Inhibition of JAK3 (unknown origin)
T1 sequence (P52333 whole entry): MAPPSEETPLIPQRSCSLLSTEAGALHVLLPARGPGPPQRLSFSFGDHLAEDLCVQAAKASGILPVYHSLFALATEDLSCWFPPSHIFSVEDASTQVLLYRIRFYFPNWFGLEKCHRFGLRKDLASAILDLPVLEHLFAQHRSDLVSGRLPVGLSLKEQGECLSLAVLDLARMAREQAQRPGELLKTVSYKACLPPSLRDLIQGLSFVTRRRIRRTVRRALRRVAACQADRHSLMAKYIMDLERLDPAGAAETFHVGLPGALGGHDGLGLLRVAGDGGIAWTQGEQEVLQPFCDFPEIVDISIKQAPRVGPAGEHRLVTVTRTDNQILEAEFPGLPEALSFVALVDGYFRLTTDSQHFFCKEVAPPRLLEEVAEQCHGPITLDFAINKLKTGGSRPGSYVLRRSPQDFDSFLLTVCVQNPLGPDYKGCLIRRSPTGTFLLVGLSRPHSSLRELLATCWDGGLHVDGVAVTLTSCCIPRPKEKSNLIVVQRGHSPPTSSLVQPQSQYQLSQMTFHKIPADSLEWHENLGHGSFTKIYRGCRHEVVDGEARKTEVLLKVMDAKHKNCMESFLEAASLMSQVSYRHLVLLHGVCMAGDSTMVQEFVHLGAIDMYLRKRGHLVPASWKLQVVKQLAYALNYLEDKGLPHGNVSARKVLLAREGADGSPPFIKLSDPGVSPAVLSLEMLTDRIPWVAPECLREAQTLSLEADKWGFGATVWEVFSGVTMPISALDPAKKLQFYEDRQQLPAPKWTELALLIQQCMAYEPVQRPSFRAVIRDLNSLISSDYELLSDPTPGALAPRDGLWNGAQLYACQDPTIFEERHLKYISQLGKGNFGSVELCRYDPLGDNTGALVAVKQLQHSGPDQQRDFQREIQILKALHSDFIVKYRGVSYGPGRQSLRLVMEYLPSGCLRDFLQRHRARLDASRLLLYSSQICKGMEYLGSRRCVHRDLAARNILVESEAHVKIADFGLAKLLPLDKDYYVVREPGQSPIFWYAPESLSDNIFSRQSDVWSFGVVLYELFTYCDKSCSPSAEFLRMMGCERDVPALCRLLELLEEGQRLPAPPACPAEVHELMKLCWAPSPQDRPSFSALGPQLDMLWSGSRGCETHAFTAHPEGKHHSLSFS

HepG2 = experiment: Cytotoxicity against human HepG2 cells incubated for 72 hrs by MTT assay; type: functional, cell-based; settings: HepG2, 72 h
MCF7 = experiment: Cytotoxicity against human MCF-7 cells incubated for 72 hrs by MTT assay; type: functional, cell-based; settings: MCF7, 72 h
A549 = experiment: Cytotoxicity against human A549 cells incubated for 72 hrs by MTT assay; type: functional, cell-based; settings: A549, 72 h
[2] = target: Cyclin-dependent kinase 2/cyclin E1 (Homo sapiens, UniProt P24941); experiment: Inhibition of CDK2/cyclin E (unknown origin) expressed in baculovirus infected Sf21 insect cells using histone H1 as substrate in presence of [gamma33P]ATP
[3] = target: Vascular endothelial growth factor receptor 2 (Homo sapiens, UniProt P35968); experiment: Inhibition of N-terminal GST-tagged human VEGFR2 (805 to 1356 residues) expressed in a baculovirus infected Sf9 insect cell incubated for 45 mins by Kinase-Glo max reagent-based luminescence assay
Homo sapiens [4] = organism: Homo sapiens; experiment: Selectivity index, ratio of IC50 for human JAK1 expressed in baculovirus expression system to IC50 for human JAK3 expressed in baculovirus expression system
Homo sapiens [5] = organism: Homo sapiens; experiment: Selectivity index, ratio of IC50 for human JAK2 expressed in baculovirus expression system to IC50 for human JAK3 expressed in baculovirus expression system

Vascular endothelial growth factor receptor 2, sequence (P35968 whole entry, the tested form may be a part): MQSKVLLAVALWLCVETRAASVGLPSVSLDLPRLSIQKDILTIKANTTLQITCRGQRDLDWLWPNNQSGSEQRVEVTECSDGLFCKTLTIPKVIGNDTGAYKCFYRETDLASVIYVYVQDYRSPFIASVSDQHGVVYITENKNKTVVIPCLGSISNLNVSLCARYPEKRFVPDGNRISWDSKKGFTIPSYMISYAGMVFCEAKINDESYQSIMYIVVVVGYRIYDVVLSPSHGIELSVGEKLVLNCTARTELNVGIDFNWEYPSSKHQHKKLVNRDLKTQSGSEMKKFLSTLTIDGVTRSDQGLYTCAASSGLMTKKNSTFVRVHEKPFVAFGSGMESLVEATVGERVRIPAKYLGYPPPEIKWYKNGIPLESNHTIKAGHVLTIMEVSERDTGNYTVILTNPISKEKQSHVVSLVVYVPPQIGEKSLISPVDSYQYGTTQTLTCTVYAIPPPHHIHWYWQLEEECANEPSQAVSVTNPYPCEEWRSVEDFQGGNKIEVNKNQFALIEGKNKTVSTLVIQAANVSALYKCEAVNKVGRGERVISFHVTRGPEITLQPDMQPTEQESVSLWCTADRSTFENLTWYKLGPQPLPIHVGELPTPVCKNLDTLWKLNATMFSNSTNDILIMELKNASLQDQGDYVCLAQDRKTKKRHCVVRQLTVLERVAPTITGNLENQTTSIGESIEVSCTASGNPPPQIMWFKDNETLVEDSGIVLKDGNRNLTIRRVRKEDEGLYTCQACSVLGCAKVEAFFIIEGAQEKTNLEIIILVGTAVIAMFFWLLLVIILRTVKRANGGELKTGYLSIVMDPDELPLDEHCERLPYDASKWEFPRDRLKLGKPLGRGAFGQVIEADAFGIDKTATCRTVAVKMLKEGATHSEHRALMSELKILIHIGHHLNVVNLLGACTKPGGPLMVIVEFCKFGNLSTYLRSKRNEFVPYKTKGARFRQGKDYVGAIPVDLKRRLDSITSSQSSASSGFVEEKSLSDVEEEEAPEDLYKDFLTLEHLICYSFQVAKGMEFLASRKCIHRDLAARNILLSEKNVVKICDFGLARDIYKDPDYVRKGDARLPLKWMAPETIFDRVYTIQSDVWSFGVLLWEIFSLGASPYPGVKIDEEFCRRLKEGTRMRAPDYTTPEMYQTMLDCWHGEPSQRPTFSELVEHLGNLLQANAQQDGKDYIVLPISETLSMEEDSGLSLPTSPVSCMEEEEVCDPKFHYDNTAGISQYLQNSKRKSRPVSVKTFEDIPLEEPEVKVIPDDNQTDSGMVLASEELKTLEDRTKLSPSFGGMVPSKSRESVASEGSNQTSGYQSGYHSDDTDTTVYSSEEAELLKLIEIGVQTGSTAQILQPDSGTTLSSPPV

SMILES: Cc1c(C(=O)Nc2ccc(Oc3ncnc4c3cnn4C)c(F)c2)nnn1-c1ccc(F)cc1
EC50 (HepG2): ≤ 10 µM
EC50 (MCF7): ≤ 10 µM
EC50 (A549): ≤ 10 µM

SMILES: COc1ccc(-n2nc(C)c3c(Nc4ccc(NC(=O)Nc5ccc(Cl)c(C(F)(F)F)c5)cc4)ncnc32)cc1
IC50 [3]: 0.22 µM

SMILES: C=CC(=O)Nc1cccc(Cn2ncc3cnc(Nc4cnn(CCOC)c4)nc32)c1
Ratio IC50 (Homo sapiens [4]): > 376
Ratio IC50 (Homo sapiens [5]): > 376

Further lines, results first:

IC50 [1]: 0.0016 µM
SMILES: C[C@@H]1CCN(C(=O)CC#N)C[C@@H]1N(C)c1ncnc2[nH]ncc12

IC50 [2]: 5.1 µM
SMILES: O=[N+]([O-])c1cccc(Nc2nc(SCCc3ccccc3)nc3[nH]ncc23)c1

IC50 [2]: 6.8 µM
SMILES: O=C(Oc1nc(SCCc2ccccc2)nc2[nH]ncc12)c1cc2ccccc2o1
